Experimental data from paper PMC6716272, “In Vivo and In Vitro Analyses of Novel Peptidomimetic Disruptors for the Serotonin 5-HT2C Receptor Interaction With Phosphatase and Tensin Homolog” (Frontiers in Pharmacology, 2019).

Tests used:
[1] = test system: cocaine–saline-trained rats; assay: Two-lever drug discrimination, cocaine (5 mg/kg) vs saline; type: in vivo, rat; conditions: for cocaine-lever responding, pretreatment before cocaine (2.5 mg/kg): lorcaserin 1 mg/kg (30 min) or SB242084 0.5 mg/kg (45 min) before test; for cocaine-lever responding in substitution test / response rate in substitution test: SB242084 0.5 mg/kg; for cocaine-lever responding in substitution test: cocaine 2.5 mg/kg, i.p.
Protocol: (§1) Experimentally naïve male Sprague-Dawley rats (n = 43; Envigo, Inc.) weighing 300–325 g at the beginning of the experiment were housed two per cage in a temperature- (21–23°C) and humidity- (45–50%) controlled environment; lighting was maintained under a 12-h light–dark cycle (0700–1900 h). Rats were maintained at 80–90% of their free-feeding weights by restricting access to water. Rats received water during daily training sessions (5–6 ml/rat/session), in the afternoon several hours after training (20 min), and over the weekend (36 h). Experiments were conducted during the light phase of the light–dark cycle (between 0900 and 1200 h) and were carried out in accordance with the National Institutes of Health Guide for the Care and Use of Laboratory Animals and with the approval of the Institutional Animal Care and Use Committee at University of Texas Medical Branch.
(§2) The procedures were conducted in commercially available two-lever operant chambers (Med Associates, St. Albans, VT). Each chamber was equipped with a water-filled dispenser mounted equidistantly between two retractable response levers on the wall and housed in a light- and soundproof cubicle. Illumination came from a 28-V house light; ventilation and masking noise were provided by a ventilation fan in the right-side wall. A computer with Med-PC IV software was used to run programs and record all experimental events.
(§3) Standard two-lever, water-reinforced drug discrimination procedures were used ([Appel and Cunningham, 1986]; [Callahan and Cunningham, 1995]; [Colpaert, 1999]). Three cohorts (n = 13–16/cohort) were trained to discriminate an injection of a training drug from saline (1.0 ml/kg, i.p.) administered 15 min before start of daily (Monday–Friday) training sessions. In one cohort (n = 14), rats were trained to discriminate the training drug lorcaserin (0.75 mg/kg, 1.0 ml/kg, i.p.) from saline. In a second cohort (n = 13), rats were trained to discriminate the training drug WAY163909 (0.75 mg/kg, 1.0 ml/kg, i.p.) from saline. In the third cohort, rats (n = 16) were trained to discriminate the training drug cocaine (5 mg/kg, 1.0 ml/kg, i.p.) from saline. Two rats in the lorcaserin–saline cohort were excluded from the present study due to failure to maintain the discrimination. Rats in the WAY163909–saline cohort also participated in additional studies ([Wild et al., 2018]); the WAY163909 dose–response curve was reevaluated between studies; a washout period was allowed, and no carryover effects were observed.
(§4) During this phase, only the stimulus-appropriate (drug or saline) lever was present. Training began under a fixed ratio 1 (FR 1) schedule of water reinforcement, and the FR requirement was incremented until all animals were responding reliably under an FR 20 schedule for each experimental condition. For half of the rats, left lever responses were reinforced after training drug administration, whereas right lever responses were reinforced after saline administration; conditions were reversed for the remaining animals. During this phase of training, drug and saline were administered irregularly with the restriction that neither condition prevailed for more than three consecutive sessions.
(§5) After responding stabilized, both levers were presented simultaneously during 15-min training sessions. The rats were required to respond on the stimulus-appropriate (correct) lever to obtain water reinforcement. There were no programmed consequences for responding on the incorrect lever. This phase of training continued until the performance of all rats attained criterion (defined as mean accuracies of at least 80% stimulus-appropriate responding for 10 consecutive sessions).
(§6) Test sessions were initiated and conducted once or twice per week following attainment of criterion. Training sessions were run during the intervening days to maintain discrimination accuracy. […]

[2] = test system: human unedited 5-HT2CR (h5-HT2CR-CHO cells); conditions: ref Anastasio et al., 2013; cited from earlier work
Description: Agonist binding to the 5-HT2CR results in dynamic changes in receptor conformation and induction of a variety of intracellular signaling pathways ([Berg et al., 1994]; [McGrew et al., 2002]; [Werry et al., 2005]; [Labasque et al., 2008]). Best characterized is coupling of the 5-HT2CR to Gαq/11 proteins to activate phospholipase Cβ (PLCβ), resulting in increased intracellular calcium (Cai ^2+) release, among various other signaling outcomes ([Millan et al., 2008]). One approach to selectively target the 5-HT2CR signaling is through protein–protein interactions that are selective for 5-HT2CR ove ...

PTEN = PTEN lipid phosphatase activity assay (competitive ELISA for PI(4,5)P2); type: biochemical; conditions: 15 min preincubation 37°C with 1 ng/µl PTEN, then 4 µM PI(3,4,5)P3 2.25 h, two independent experiments in triplicate
Protocol: Lipid phosphatase activity of PTEN was quantified using a PTEN activity ELISA kit (K-4700, Echelon Biosciences, Salt Lake City, UT) following the manufacturer’s protocol. Briefly, 1 ng/µl PTEN enzyme (E-3000, Echelon Bioscience) was incubated with PTEN inhibitor SF1670 (200 µM), 1, 2, and 2 derivatives (10 µM) for 15 min at 37°C. Then, PI(3,4,5)P3 substrate was added for a final concentration of 4 µM, and the reaction was incubated at 37°C for 2.25 h. The lipid phosphatase activity of PTEN was quantified by measuring the amount of PI(4,5)P2 by competitive ELISA in which final absorbance is inversely related to the amount of PI(4,5)P2. The absorbance was measured by FlexStation3 at 450 nm (Molecular Devices). Results are represented as fold change over PTEN + PI(3,4,5)P3 alone (mean ± SD) of two independent experiments run in technical triplicates and analyzed by one-way ANOVA with a priori comparison with PTEN + PI(3,4,5)P3 alone (Dunnett’s; GraphPad Prism 7.02). All statistical analyses were conducted with an experiment-wise error rate of α = 0.05.

[3] = test system: human unedited 5-HT2CR (h5-HT2CR-CHO cells); type: cell-based; conditions: for EMAX (%5-HT): maximum 5-HT-induced Cai2+ release in presence of 1 nM peptide derivative, 5-HT vehicle, 10^-11 to 10^-6 M, 5-HT alone = 100%, AUC normalised to crystal violet, mean ± SEM of 4–5 biological replicates, SEM; for change of 5-HT EC50 / potency versus 5-HT alone: pretreatment with 1 nM peptide; for elevation of the maximum Cai2+ release induced by 5-HT: pretreatment with peptide (1 nM), p < 0.05
[4] = test system: lorcaserin–saline-trained rats; assay: Two-lever drug discrimination, lorcaserin (0.75 mg/kg) vs saline; type: in vivo, rat
Protocol: as §1, §2, §3, §4, §5, §6

[5] = test system: WAY163909–saline-trained rats; assay: Two-lever drug discrimination, WAY163909 (0.75 mg/kg) vs saline; type: in vivo, rat
Protocol: as §1, §2, §3, §4, §5, §6

[6] = vs previous cocaine maintenance session, lorcaserin 1 mg/kg, p < 0.05

Compound: Cc1cc2c(cc1Cl)N(C(=O)Nc1ccc(Oc3cccnc3C)nc1)CC2 [SB242084]
- lorcaserin (1 mg/kg)-mediated suppression of cocaine (2.5 mg/kg) lever responding and response rate after SB242084 pretreatment ([1]; SB242084 0.5 mg/kg + lorcaserin 1 mg/kg + cocaine 2.5 mg/kg): fully recovered
- cocaine-lever responding, pretreatment before cocaine (2.5 mg/kg) ([1]; combination test): did not alter cocaine lever-responding or response rate
- cocaine-lever responding in substitution test ([1]; lorcaserin 1 mg/kg): engendered primarily saline-lever responding
- response rate in substitution test [1, 6]: slight but significant increase in response rate

Compound: Ac-PNQDQNAR-NH2 [compound 2, shorter eight amino acid version of h3L4F]
- effect on 5-HT2CR agonist-mediated Cai2+ release [2]: enhance
- PTEN lipid phosphatase activity (PTEN; 10 µM peptide): do not suppress PTEN lipid phosphatase activity
- EMAX (%5-HT) [3]: 118 ± 4.0%
- change of 5-HT EC50 / potency versus 5-HT alone [3]: no change in EC50
- elevation of the maximum Cai2+ release induced by 5-HT [3]: ~20%

Compound: COC(=O)[C@H]1[C@@H](OC(=O)c2ccccc2)C[C@@H]2CC[C@H]1N2C [cocaine]
- cocaine-lever responding in substitution test ([1]; lorcaserin 1 mg/kg): full substitution
- response rates after training drug ([1]; training sessions, cocaine 5 mg/kg i.p., not statistically different from saline): 25.6 ± 0.55 min⁻¹

Compound: (S)-1-((S)-4-amino-2-((3S,4S)-4-((S)-1-((S)-1-carboxy-4-guanidinobutylamino)-1-oxo-propan-2-ylcarbamoyl)pyrrolidine-3-carboxamido)-4-oxobutanoyl)pyrrolidine-2-carboxylic acid [compound 7]
- potentiation of 5-HT-induced Cai2+ release (in words) ([3]; 1 nM peptide, Welch's t-test vs 5-HT alone, α = 0.05): potentiated
- EMAX (%5-HT) [3]: 125 ± 5.2%
- drug-lever responding in combination with lorcaserin (0.5 mg/kg) ([4]; combination test, i.p., TAT-r3L4F 2 µmol/kg (p < 0.05), peptide 7 2, 5 µmol/kg): modestly, but not significantly, enhanced
- response rate in combination with lorcaserin (0.5 mg/kg) ([4]; combination test, i.p., TAT-r3L4F 2 µmol/kg, peptide 7 2, 5 µmol/kg): no change in rate
- drug-like responding ([4]; substitution test, i.p., TAT-r3L4F 1, 2 µmol/kg, peptide 7 1, 2, 5 µmol/kg (data not shown)): < 20%

Compound: CC(C)(C)C(=O)Nc1ccc2c(c1)C(=O)C(=O)c1ccccc1-2 [SF1670]
- PTEN lipid phosphatase activity (PTEN; 200 µM inhibitor): suppresses PTEN lipid phosphatase activity

Compound: C[C@H]1CNCCc2ccc(Cl)cc21 [lorcaserin, (1R)-8-chloro-2,3,4,5-tetrahydro-1-methyl-1H-3 benzazepine]
- lever responding in substitution test (low-dose series) ([1]; TAT-r3L4F alone 1, 2 µmol/kg, lorcaserin alone 0.5 mg/kg, data not shown): saline-appropriate responding
- full substitution evoked by cocaine (2.5 mg/kg) after lorcaserin (0.5 mg/kg) alone ([1]; combination test, lorcaserin 0.5 mg/kg + cocaine 2.5 mg/kg): not suppressed
- cocaine-lever responding, pretreatment before cocaine (2.5 mg/kg) ([1]; combination test): significantly reduced cocaine lever-appropriate responding
- response rate, pretreatment before cocaine (2.5 mg/kg) ([1]; combination test, lorcaserin 1 mg/kg, p < 0.05): significantly reduced
- behavioral disruption (failure to complete FR 20) ([1]; lorcaserin 1 mg/kg i.p. alone, two rats failed to complete the FR 20 schedule): induces behavioral disruption
- cocaine-lever responding in substitution test ([1]; lorcaserin 1 mg/kg): engendered primarily saline-lever responding
- response rates associated with cocaine (2.5 mg/kg) ([1]; lorcaserin alone 0.5 mg/kg, or TAT-r3L4F 1, 2 µmol/kg plus lorcaserin 0.5 mg/kg, p < 0.05): significantly suppressed the response rates
- response rate in substitution test (low-dose series) ([1]; vs previous cocaine maintenance session, TAT-r3L4F alone 1, 2 µmol/kg, lorcaserin alone 0.5 mg/kg, data not shown): significant reduction in response rates
- response rate in substitution test [1, 6]: significant reduction in response rate
- response rate in substitution test ([5]; lorcaserin 1 mg/kg (vs saline), TAT-r3L4F 1, 2 µmol/kg (vs previous WAY163909 maintenance session)): suppressed response rates versus saline
- substitution for WAY163909 ([5]; substitution test, lorcaserin 1 mg/kg i.p.): full substitution
- ED50 ([4]; Rattus norvegicus, read-out: ED50 (dose predicted to elicit 50% lorcaserin-lever responding)): 0.54 mg/kg
- response rates after training drug versus saline ([4]; training sessions, lorcaserin 0.75 mg/kg i.p., p < 0.05): lower than rates after saline

Compound: Ac-PNQDQNARRRKKKERR-NH2 [h3L4F, 16 amino acid peptide homologous to a fragment of the third intracellular loop of the human 5-HT2CR]
- effect on 5-HT2CR agonist-mediated Cai2+ release [2]: enhance
- PTEN lipid phosphatase activity (PTEN; 10 µM peptide): do not suppress PTEN lipid phosphatase activity
- EMAX (%5-HT) [3]: 131 ± 6.3%
- change of 5-HT EC50 / potency versus 5-HT alone [3]: no change in EC50
- elevation of the maximum Cai2+ release induced by 5-HT [3]: ~30%

Compound: c1cc2c3c(c1)[C@H]1CCC[C@H]1N3CCNC2 [WAY163909, (7b-R,10a-R)-1,2,3,4,8,9,10,10a-octahydro-7bH-cyclopenta[b][1,4] diazepino [6,7,1hi] indole]
- ED50 (WAY163909-lever responding) ([5]; i.p., 15 min before test, 95% CI 0.51–0.61 mg/kg): 0.56 mg/kg
- response rates after training drug versus saline ([5]; training sessions, WAY163909 0.75 mg/kg i.p., p < 0.05): lower than rates after saline
- substitution for lorcaserin ([4]; substitution test, WAY163909 0.75 mg/kg i.p., full substitution = ≥80% drug-appropriate responding): full substitution
- response rate in substitution test ([4]; vs previous lorcaserin maintenance session, WAY163909 0.75 mg/kg, TAT-r3L4F 2 µmol/kg (trend for 1 µmol/kg)): suppressed response rates similar to the training drug
